This is an account of results in patent publication US9416128B2, “Fused heterocyclic compounds as ion channel modulators” (Gilead Sciences, Inc., priority 2013, dated 2016).

The target in assay [1] is wild-type human cardiac sodium channel, hNaV 1.5 (Late INa) (Homo sapiens, UniProt Q14524). Description: Late INa screening assay (whole cell patch clamp, QPatch, Tefluthrin-induced late current). It is filed as cell-based. Particulars: HEK293, % inhibition (percent block of late INa) at 1 uM; HEK293 hNaV1.5; 10 μM Tefluthrin; read-out: Nav1.5 Late INa 1 uM. As for the experimental part: The cardiac late sodium current (Late INa) and peak sodium current (Peak INa) assays are performed on an automated electrophysiology platform, QPatch 16X or QPatch HT (Sophion Bioscience, Copenhagen, Denmark) using the whole cell patch clamp technique to measure currents through the cell membrane. The assay uses an HEK293 (human embryonic kidney) cell line heterologously expressing the wild-type human cardiac sodium channel, hNaV 1.5, purchased from Millipore (Billerica, Mass.). No beta subunits were coexpressed with the Na channel alpha subunit. Cells are maintained with standard tissue culture procedures and stable channel expression is maintained with 400 μg/mL Geneticin in the culture medium. Experiments are carried out at 23-25° C.
Sequence of wild-type human cardiac sodium channel, hNaV 1.5 (Late INa) (Q14524 whole entry): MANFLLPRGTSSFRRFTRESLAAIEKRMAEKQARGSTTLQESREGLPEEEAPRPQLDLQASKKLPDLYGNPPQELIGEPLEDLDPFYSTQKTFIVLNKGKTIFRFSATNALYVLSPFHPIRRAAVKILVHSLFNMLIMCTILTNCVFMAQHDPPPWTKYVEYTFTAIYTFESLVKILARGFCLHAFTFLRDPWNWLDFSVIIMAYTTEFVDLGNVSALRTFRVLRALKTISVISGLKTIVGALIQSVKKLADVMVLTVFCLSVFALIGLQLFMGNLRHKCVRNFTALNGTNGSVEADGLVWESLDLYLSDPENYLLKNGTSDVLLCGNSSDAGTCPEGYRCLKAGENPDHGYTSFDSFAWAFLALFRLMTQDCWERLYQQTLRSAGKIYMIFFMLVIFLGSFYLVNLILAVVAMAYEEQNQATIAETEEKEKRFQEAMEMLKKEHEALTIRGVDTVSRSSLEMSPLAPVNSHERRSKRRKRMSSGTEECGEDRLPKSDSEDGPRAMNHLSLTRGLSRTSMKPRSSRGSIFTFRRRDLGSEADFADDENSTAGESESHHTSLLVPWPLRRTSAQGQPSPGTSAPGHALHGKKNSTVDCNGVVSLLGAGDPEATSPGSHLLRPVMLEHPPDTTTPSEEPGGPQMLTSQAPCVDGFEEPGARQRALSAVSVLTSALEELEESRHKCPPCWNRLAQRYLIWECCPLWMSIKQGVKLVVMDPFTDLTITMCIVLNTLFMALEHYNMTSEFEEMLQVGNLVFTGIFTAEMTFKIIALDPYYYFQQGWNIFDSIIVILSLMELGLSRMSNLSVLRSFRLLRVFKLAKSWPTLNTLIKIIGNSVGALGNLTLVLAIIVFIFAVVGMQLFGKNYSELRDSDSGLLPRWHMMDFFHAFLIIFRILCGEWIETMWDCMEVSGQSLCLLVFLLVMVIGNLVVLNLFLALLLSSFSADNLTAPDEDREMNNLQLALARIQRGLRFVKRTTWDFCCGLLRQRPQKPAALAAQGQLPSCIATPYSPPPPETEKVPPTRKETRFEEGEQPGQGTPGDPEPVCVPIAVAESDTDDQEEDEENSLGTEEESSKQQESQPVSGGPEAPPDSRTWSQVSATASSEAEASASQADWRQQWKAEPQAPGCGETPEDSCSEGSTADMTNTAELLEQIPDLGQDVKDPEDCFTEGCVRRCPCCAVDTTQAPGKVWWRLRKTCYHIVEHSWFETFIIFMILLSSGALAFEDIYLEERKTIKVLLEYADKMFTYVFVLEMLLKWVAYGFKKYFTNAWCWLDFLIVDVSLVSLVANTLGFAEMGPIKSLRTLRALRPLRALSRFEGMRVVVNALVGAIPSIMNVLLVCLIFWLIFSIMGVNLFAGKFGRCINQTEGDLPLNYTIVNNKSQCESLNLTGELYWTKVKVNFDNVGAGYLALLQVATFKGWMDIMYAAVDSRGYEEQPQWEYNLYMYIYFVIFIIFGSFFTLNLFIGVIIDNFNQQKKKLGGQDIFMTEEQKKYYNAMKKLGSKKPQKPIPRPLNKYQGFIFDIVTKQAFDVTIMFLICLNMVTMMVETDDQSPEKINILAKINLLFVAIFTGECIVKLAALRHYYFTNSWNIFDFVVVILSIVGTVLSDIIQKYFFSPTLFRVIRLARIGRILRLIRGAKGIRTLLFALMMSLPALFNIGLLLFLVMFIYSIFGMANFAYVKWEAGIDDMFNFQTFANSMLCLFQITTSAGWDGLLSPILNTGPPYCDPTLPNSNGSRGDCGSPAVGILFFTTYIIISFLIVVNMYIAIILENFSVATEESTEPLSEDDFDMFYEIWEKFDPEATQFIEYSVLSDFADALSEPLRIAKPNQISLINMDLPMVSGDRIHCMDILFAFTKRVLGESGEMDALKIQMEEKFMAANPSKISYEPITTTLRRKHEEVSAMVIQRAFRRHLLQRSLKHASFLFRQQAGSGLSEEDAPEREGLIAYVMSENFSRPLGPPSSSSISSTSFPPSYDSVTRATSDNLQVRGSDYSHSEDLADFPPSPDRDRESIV
For both the Late INa and Peak INa assays, series resistance compensation is set to 100% and series resistance and whole-cell compensation are performed automatically. Currents are digitized at 25 kHz and low-pass filtered at 5 kHz and stored in the Sophion Bioscience Oracle database (Sophion Bioscience, Copenhagen, Denmark). Analysis is performed using QPatch Assay software and data are compiled in Excel 2010 (Microsoft, Seattle, Wash., U.S.A.).
Compound stocks are routinely made by the Gilead Sample Bank in vials to 10 mM in dimethyl sulfoxide (DMSO). In some cases, when compounds are not soluble in DMSO, they are made in 100% ethanol. Stocks are sonicated as necessary. The extracellular solution for screening Late INa is composed of: 140 mM NaCl, 4 mM KCl, 1.8 mM CaCl2, 1 mM MgCl2, 10 mM HEPES and 10 mM Dextrose with pH adjusted to 7.35 using NaOH. The intracellular solution contains: 105 mM CsF, 20 mM CsCl, 10 NaF, 2 mM EGTA, 10 mM HEPES and 10 mM Dextrose with pH adjusted to 7.35 with CsOH. Compounds are diluted in extracellular solution using a MicroLab Nimbus (Hamilton Robotics, Reno, Nev.) to between 0.3 and 3 μM in glass vials and transferred to glass well plates before robotic addition to the cells. The 0 mM Na extracellular solution (0Na-ECF) used at the end of each experiment for the Late INa and Peak INa assays to measure baseline current contains: 140 Choline-Cl; 4 mM KCl, 1.8 mM CaCl2; 1 mM MgCl2; 10 mM HEPES and 10 mM Dextrose with pH was adjusted to 7.35 with CsOH.
For the Late INa assay, sodium channels are activated every 10 seconds (0.1 Hz) by depolarizing the cell membrane to −20 mV for 250 milliseconds (ms) from a holding potential of −120 mV.
Compounds were tested to determine their activity in blocking the late sodium current. Late INa was generated by adding 10 μM Tefluthrin (pyrethroid) to the extracellular solution. For the purposes of the screening, Late INa is defined as the mean current between 240 ms and 265 ms during the voltage step to −20 mV. After establishing the whole cell recording configuration, Late INa activator is added to each well 4 times over a 15 minute period so that the late component of the Na current reaches a stable value. Compounds were then added (typically at 0.3 or 1 μM), in the presence of the Late INa activator, with 3 additions over the course of 5 minutes. Measurements were made at the end of exposure to the third compound addition and values were normalized to the current level when all Na^+ was removed from the extracellular solution after two additions of 0Na-ECF.
Results are reported as percent block of late INa and results were analyzed by incorporating rundown correction for the Late INa.
(In general: Patch clamp records ionic current or voltage across a cell membrane.)

The target of assay [2] is T1, hNaV1.2 (SCN2A) (Homo sapiens, UniProt Q99250).
T1 construct: expressed in transfected cells
T1 sequence (Q99250 whole entry): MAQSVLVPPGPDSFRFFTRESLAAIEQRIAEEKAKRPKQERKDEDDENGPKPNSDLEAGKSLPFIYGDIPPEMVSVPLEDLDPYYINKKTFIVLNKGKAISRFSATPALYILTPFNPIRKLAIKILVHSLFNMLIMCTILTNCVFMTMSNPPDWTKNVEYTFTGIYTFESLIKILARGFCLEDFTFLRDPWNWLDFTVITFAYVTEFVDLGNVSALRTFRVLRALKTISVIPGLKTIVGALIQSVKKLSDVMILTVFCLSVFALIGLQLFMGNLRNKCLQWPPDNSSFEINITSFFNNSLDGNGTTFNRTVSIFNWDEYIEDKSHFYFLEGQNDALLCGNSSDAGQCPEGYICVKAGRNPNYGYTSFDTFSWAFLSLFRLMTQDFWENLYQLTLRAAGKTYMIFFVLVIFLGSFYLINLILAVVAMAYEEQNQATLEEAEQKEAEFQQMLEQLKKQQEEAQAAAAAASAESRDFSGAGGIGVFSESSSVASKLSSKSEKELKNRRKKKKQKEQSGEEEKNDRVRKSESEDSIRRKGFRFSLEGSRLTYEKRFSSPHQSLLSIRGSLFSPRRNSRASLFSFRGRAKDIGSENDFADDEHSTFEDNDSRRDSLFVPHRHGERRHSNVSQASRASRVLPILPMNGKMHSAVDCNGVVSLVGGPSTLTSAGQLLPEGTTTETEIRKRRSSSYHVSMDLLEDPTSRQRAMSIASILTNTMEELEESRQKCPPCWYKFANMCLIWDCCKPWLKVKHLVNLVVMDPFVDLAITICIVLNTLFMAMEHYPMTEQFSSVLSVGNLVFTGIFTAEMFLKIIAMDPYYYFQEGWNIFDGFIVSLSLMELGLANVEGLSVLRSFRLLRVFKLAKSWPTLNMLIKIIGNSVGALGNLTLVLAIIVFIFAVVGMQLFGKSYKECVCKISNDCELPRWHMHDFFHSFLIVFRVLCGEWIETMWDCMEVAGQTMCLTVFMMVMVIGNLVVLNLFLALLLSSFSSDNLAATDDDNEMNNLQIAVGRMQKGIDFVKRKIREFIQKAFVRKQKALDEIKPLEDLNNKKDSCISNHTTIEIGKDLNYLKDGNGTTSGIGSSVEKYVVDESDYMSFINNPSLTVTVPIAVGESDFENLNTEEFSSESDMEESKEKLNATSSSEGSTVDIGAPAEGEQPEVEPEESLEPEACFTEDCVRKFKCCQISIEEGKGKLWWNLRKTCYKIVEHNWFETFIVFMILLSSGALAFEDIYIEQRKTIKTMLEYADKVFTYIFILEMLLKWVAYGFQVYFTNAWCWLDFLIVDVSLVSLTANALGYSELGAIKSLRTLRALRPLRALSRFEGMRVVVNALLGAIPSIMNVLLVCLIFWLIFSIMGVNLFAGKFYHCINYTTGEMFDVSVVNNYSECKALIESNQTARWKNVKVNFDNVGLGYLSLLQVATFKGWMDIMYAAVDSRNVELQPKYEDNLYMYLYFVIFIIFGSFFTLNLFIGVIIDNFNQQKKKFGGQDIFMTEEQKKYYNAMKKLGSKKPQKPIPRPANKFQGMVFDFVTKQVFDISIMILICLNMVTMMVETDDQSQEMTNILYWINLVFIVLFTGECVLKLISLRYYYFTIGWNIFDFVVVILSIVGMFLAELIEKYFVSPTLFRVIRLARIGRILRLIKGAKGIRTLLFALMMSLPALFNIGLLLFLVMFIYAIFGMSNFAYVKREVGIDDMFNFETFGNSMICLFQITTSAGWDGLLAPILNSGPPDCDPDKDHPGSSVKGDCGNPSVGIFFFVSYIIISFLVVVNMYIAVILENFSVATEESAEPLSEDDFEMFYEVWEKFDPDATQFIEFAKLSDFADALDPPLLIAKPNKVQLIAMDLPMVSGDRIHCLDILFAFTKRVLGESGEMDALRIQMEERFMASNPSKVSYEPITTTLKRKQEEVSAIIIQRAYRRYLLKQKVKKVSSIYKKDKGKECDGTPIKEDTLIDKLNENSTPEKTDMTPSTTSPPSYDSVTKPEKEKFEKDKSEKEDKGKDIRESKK
T1 sequence (Q07699 19-218 partner): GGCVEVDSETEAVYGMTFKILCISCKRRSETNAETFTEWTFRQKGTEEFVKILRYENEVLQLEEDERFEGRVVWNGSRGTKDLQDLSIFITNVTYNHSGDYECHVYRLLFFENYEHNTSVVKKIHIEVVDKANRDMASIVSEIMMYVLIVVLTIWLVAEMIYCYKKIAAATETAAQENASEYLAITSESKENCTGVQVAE
T1 sequence (O60939 30-215 partner): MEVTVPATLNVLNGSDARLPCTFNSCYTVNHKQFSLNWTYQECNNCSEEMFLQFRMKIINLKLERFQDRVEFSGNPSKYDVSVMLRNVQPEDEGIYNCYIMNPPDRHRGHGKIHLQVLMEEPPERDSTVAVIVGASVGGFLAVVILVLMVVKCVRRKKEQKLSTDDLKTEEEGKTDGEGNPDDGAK
Description: Use-dependent inhibition of the CNS NaV1.2 sodium channel. It is filed as cell-based. To be noted: % inhibition; for inhibition at 1 µM / inhibition at 10 µM: HEK-293, 25 Hz; for inhibition at 1 µM: read-out: Nav1.2 UDB 25 Hz 1 uM; for inhibition at 10 µM: read-out: Nav1.2 UDB 25 Hz 10 uM. As for the experimental part:
HEK-293 cells stably expressing wild-type (WT) hNaV1.2 (SCN2A NCBI # NM_021007.2, SCN1B NCBI # NM_001037.4, SCN2B NCBI # NM_004588.2) were used to record INa. Cells are maintained with standard tissue culture procedures and stable channel expression is maintained with 800 ug/mL G418 and 3 ug/mL Puromycin in the culture medium. Unless otherwise noted, all reagents are purchased from Sigma-Aldrich (St Louis, Mo., U.S.A.).
Assays measuring Use-Dependent Block (UDB) of NaV1.2 are performed on an automated electrophysiology platform, QPatch 16X or QPatch HT (Sophion Bioscience, Copenhagen, Denmark), using the whole cell patch clamp technique to measure currents through the cell membrane. Series resistance compensation is set to 100% and series resistance and whole-cell compensation are performed automatically. Currents stored in the Sophion Bioscience Oracle database (Sophion Bioscience, Copenhagen, Denmark). Analysis is performed using QPatch Assay software and data are compiled in Excel 2010 (Microsoft, Seattle, Wash., U.S.A.). The internal (pipette) solution consists of (in mM) 105 CsF, 10 NaF, 20 CsCl, 2 EGTA, 10 HEPES, 10 Dextrose with a pH of 7.35 and osmolarity of 300 mOsmol/kg. The external (bath) solution contains in (mM): 145 NaCl, 4 KCl, 1.8 CaCl2, 1 MgCl2, 10 dextrose, 10 HEPES, with a pH of 7.35 and osmolarity of 310 mOsmol/kg. Experiments are carried out at 23-25° C.
Compound stocks are routinely made by the Gilead Sample Bank in vials to 10 mM in dimethyl sulfoxide (DMSO). In some cases, when compounds are not soluble in DMSO, they are made in 100% ethanol. Stocks are sonicated as necessary. […]
Cells are allowed to stabilize for 10 min after establishment of the whole-cell configuration before current is measured. The test compound is applied 2 times at 60 second intervals. After the second compound addition, a 200 second wait period was imposed to allow for equilibration. Leak currents are subtracted by using an online P/4 procedure and all currents are low-pass Bessel filtered at 5 kHz and digitized at […].
Results are presented as mean percentage inhibition.
Use-dependent block of NaV1.2 peak current is measured during pulse number 20 of a voltage pulse train (0 mV, 20 ms, 20 pulses, 25 Hz) from a holding potential of −120 mV.
Currents are normalized to the peak current recorded in response to the first pulse in each frequency train. The voltage protocol for UDB was performed in the absence and presence of compound and percentage inhibition was calculated with respect to the compound free condition.
Data analysis is performed using QPatch Assay Software 4.0, and Excel 2002 (Microsoft, Seattle, Wash., U.S.A.).

Turning to `O=C1Oc2ccc(-c3ccc(OC(F)(F)F)cc3F)cc2CN1Cc1ncccn1` [Example 7, 6-(2-fluoro-4-(trifluoromethoxy)phenyl)-3-(pyrimidin-2-ylmethyl)-3,4-dihydro-2H-benzo[e][1,3]oxazin-2-one], the inhibition at 1 µM is 42.3% in assay [1] and 18% in assay [2] (use-dependent block at 1 uM). For the same compound, the inhibition at 10 µM in assay [2] (use-dependent block at 10 uM) turned out to be 56.3%.

Regarding `Cc1cc(OC(F)(F)F)ccc1-c1ccc2c(c1)CN(Cc1ccccn1)C(=O)O2` [Example 23, 6-(2-methyl-4-(trifluoromethoxy)phenyl)-3-(pyridin-2-ylmethyl)-3,4-dihydro-2H-benzo[e][1,3]oxazin-2-one], the results for the inhibition at 1 µM in assay [1] and in assay [2] (use-dependent block at 1 uM) were 30.5% and less than 5%, respectively. In assay [2] (use-dependent block at 10 uM), the inhibition at 10 µM came to 56%.

For `O=C1Oc2ccc(-c3ccc(C4(C(F)(F)F)CC4)cc3)cc2CN1Cc1ncccn1` [Example 38, 3-(pyrimidin-2-ylmethyl)-6-(4-(1-(trifluoromethyl)cyclopropyl)phenyl)-3,4-dihydro-2H-benzo[e][1,3]oxazin-2-one], the inhibition at 1 µM in assay [1] is 54.2%; in assay [2] (use-dependent block at 1 uM), 34.1%. Also, in assay [2] (use-dependent block at 10 uM), the inhibition at 10 µM turned out to be 71.8%.

`O=C1Oc2ccc(-c3ccc(OC(F)(F)F)cc3)cc2CN1Cc1ccccn1` [Example 20, 3-(pyridin-2-ylmethyl)-6-(4-(trifluoromethoxy)phenyl)-3,4-dihydro-2H-benzo[e][1,3]oxazin-2-one]: the inhibition at 1 µM is 53.7% in assay [1] and 30.2% in assay [2] (use-dependent block at 1 uM). Moreover, the inhibition at 10 µM in assay [2] (use-dependent block at 10 uM) stood at 69.8%.

Consider `Cc1cnc(CN2Cc3cc(-c4ccc(C(F)(F)F)cc4F)ccc3OC2=O)nc1` [Example 41, 6-(2-fluoro-4-(trifluoromethyl)phenyl)-3-((5-methylpyrimidin-2-yl)methyl)-3,4-dihydro-2H-benzo[e][1,3]oxazin-2-one], for which the values for the inhibition at 1 µM in assay [1] and in assay [2] (use-dependent block at 1 uM) were 45.7% and 7.1%, respectively. The inhibition at 10 µM in assay [2] (use-dependent block at 10 uM) was found to be 36.2%.

On to `COc1cc(OC(F)(F)F)ccc1-c1ccc2c(c1)CN(Cc1ccccn1)C(=O)O2` [Example 22, 6-(2-methoxy-4-(trifluoromethoxy)phenyl)-3-(pyridin-2-ylmethyl)-3,4-dihydro-2H-benzo[e][1,3]oxazin-2-one], for which the inhibition at 1 µM in assay [1] was 48.3%; in assay [2] (use-dependent block at 1 uM) it was less than 5%. In addition, the inhibition at 10 µM in assay [2] (use-dependent block at 10 uM) was determined as 55.6%.

On to `O=C1Oc2ccc(-c3ccc(C(F)(F)F)cc3F)cc2CN1Cc1ncccn1` [Example 36, 6-(2-fluoro-4-(trifluoromethyl)phenyl)-3-(pyrimidin-2-ylmethyl)-3,4-dihydro-2H-benzo[e][1,3]oxazin-2-one], for which the inhibition at 1 µM in assay [1] amounted to 43.6%; in assay [2] (use-dependent block at 1 uM), 19.1%. In assay [2] (use-dependent block at 10 uM), the inhibition at 10 µM worked out at 55.9%.

Regarding `CCCOc1cc(C(F)(F)F)ccc1-c1ccc2c(c1)CN(Cc1ncccn1)C(=O)O2` [Example 27, 6-(2-propoxy-4-(trifluoromethyl)phenyl)-3-(pyrimidin-2-ylmethyl)-3,4-dihydro-2H-benzo[e][1,3]oxazin-2-one], the figures for the inhibition at 1 µM in assay [1] and in assay [2] (use-dependent block at 1 uM) were 60.1% and 42.2%, respectively. The inhibition at 10 µM in assay [2] (use-dependent block at 10 uM) turned out to be 80.6%.

Consider `Cc1csc(CN2Cc3cc(-c4ccc(OC(F)(F)F)c(F)c4)ccc3OC2=O)n1` [Example 53, 6-(3-fluoro-4-(trifluoromethoxy)phenyl)-3-((4-methylthiazol-2-yl)methyl)-3,4-dihydro-2H-benzo[e][1,3]oxazin-2-one], for which the inhibition at 1 µM is 60.3% in assay [1] and 32.3% in assay [2] (use-dependent block at 1 uM). Further, the inhibition at 10 µM in assay [2] (use-dependent block at 10 uM) stood at 73.6%.

Take `COc1cc(OC(F)(F)F)ccc1-c1ccc2c(c1)CN(Cc1cccc(C)n1)C(=O)O2` [Example 46, 6-(2-methoxy-4-(trifluoromethoxy)phenyl)-3-((6-methylpyridin-2-yl)methyl)-3,4-dihydro-2H-benzo[e][1,3]oxazin-2-one]: the inhibition at 1 µM is 51.3% in assay [1] and 22.4% in assay [2] (use-dependent block at 1 uM). Further, in assay [2] (use-dependent block at 10 uM), the inhibition at 10 µM came to 77.2%.

On to `O=C1Oc2ccc(-c3ccc(OC(F)(F)F)c(F)c3)cc2CN1Cc1ncccn1` [Example 10, 6-(3-fluoro-4-(trifluoromethoxy)phenyl)-3-(pyrimidin-2-ylmethyl)-3,4-dihydro-2H-benzo[e][1,3]oxazin-2-one], for which the inhibition at 1 µM in assay [1] was determined as 57.2%; in assay [2] (use-dependent block at 1 uM), 30.2%. Further, in assay [2] (use-dependent block at 10 uM), the inhibition at 10 µM was 75%.

As for `O=C1Oc2ccc(-c3ccc(Cl)c(F)c3)cc2CN1Cc1ncccn1` [Example 6, 6-(4-chloro-3-fluorophenyl)-3-(pyrimidin-2-ylmethyl)-3,4-dihydro-2H-benzo[e][1,3]oxazin-2-one], the inhibition at 1 µM in assay [1] was found to be 43.3%.

Turning to `COc1cc(OC(F)(F)F)ccc1-c1ccc2c(c1)CN(Cc1ncccn1)C(=O)O2` [Example 1, 6-(2-methoxy-4-(trifluoromethoxy)phenyl)-3-(pyrimidin-2-ylmethyl)-3,4-dihydro-2H-benzo[e][1,3]oxazin-2-one], in assay [2] (use-dependent block at 1 uM), the “Nav1.2 UDB 25 Hz 1 uM” value was 7.9%. Moreover, in assay [2] (use-dependent block at 10 uM), the “Nav1.2 UDB 25 Hz 10 uM” value amounted to 37.0%.

As for `CC1c2cc(-c3cccc(OC(F)(F)F)c3)ccc2OC(=O)N1Cc1ncccn1` (centres unmarked) [Example 50, 4-methyl-3-(pyrimidin-2-ylmethyl)-6-(3-(trifluoromethoxy)phenyl)-3,4-dihydro-2H-benzo[e][1,3]oxazin-2-one], in assay [1], the inhibition at 1 µM turned out to be 34.9%.

As for `CC1c2cc(-c3ccc(OC(F)(F)F)cc3)ccc2OC(=O)N1Cc1ncccn1` (centres unmarked) [Example 48, 4-methyl-3-(pyrimidin-2-ylmethyl)-6-(4-(trifluoromethoxy)phenyl)-3,4-dihydro-2H-benzo[e][1,3]oxazin-2-one], in assay [1], the inhibition at 1 µM amounted to 53.2%.
